Results on five compounds are retold here after the supplement of paper PMC10307832.

The first experiment deals with NCI-H1437. The experiment in a line: relative viability (nuclei count vs DMSO), 5 days (fraction); higher = more cells survive. To be noted: first compound 0.08 µM. In outline: (§1)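 Relative viability equals treated-well nuclei counts divided by vehicle-well nuclei counts. Counts came from 4× images of lung cancer cell lines grown in 1536-well plates for 5 days after pin-tool dosing on the day after seeding. Dosing used one drug alone or a fixed anchor-drug dose plus five library-drug doses (not always all listed) in √10 steps, and values are medians of duplicate plates.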
Compound `CCCCCCCCCCCC1=C(O)C(=O)C=C(O)C1=O` [Embelin] + Cc1nc(Nc2ncc(C(=O)Nc3c(C)cccc3Cl)s2)cc(N2CCN(CCO)CC2)n1 [Dasatinib] (partner 0.075 µM) showed a relative viability of 0.407.

`CCCCCCCCCCCC1=C(O)C(=O)C=C(O)C1=O` [Embelin] + CC(=O)c1c(C)c2cnc(Nc3ccc(N4CCNCC4)cn3)nc2n(C2CCCC2)c1=O [Palbociclib] (partner 0.5 µM) had a relative viability of 0.313.

`CCCCCCCCCCCC1=C(O)C(=O)C=C(O)C1=O` [Embelin] + COc1cccc2cc(-c3nc([C@H]4CC[C@H](C(=O)O)CC4)n4ncnc(N)c34)[nH]c12 [OSI-027] (partner 0.5 µM) displayed a relative viability of 0.859.

The compound `CCCCCCCCCCCC1=C(O)C(=O)C=C(O)C1=O` [Embelin] + Nc1nc2[nH]cc(CCc3ccc(C(=O)N[C@@H](CCC(=O)O)C(=O)O)cc3)c2c(=O)[nH]1 [Pemetrexed] (partner 0.2 µM) showed a relative viability of 0.339.

Staying with this experiment, now noted: first compound 0.8 µM.
In turn, `CCCCCCCCCCCC1=C(O)C(=O)C=C(O)C1=O` [Embelin] + CCNC(=O)c1noc(-c2cc(C(C)C)c(O)cc2O)c1-c1ccc(CN2CCOCC2)cc1 [Luminespib] (partner 0.01 µM) returned a relative viability of 1.17.

`CCCCCCCCCCCC1=C(O)C(=O)C=C(O)C1=O` [Embelin] + Cc1nc(Nc2ncc(C(=O)Nc3c(C)cccc3Cl)s2)cc(N2CCN(CCO)CC2)n1 [Dasatinib] (partner 0.075 µM) returned a relative viability of 0.459.

The compound `CCCCCCCCCCCC1=C(O)C(=O)C=C(O)C1=O` [Embelin] + CC(=O)c1c(C)c2cnc(Nc3ccc(N4CCNCC4)cn3)nc2n(C2CCCC2)c1=O [Palbociclib] (partner 0.5 µM) gave a relative viability of 0.3.

With `CCCCCCCCCCCC1=C(O)C(=O)C=C(O)C1=O` [Embelin] + COc1cccc2cc(-c3nc([C@H]4CC[C@H](C(=O)O)CC4)n4ncnc(N)c34)[nH]c12 [OSI-027] (partner 0.5 µM), the relative viability was 1.01.

Turning to `CCCCCCCCCCCC1=C(O)C(=O)C=C(O)C1=O` [Embelin] + Nc1nc2[nH]cc(CCc3ccc(C(=O)N[C@@H](CCC(=O)O)C(=O)O)cc3)c2c(=O)[nH]1 [Pemetrexed] (partner 0.2 µM), the relative viability came to 0.306.

Staying with this experiment, now noted: first compound 2.53 µM.
As to `CCCCCCCCCCCC1=C(O)C(=O)C=C(O)C1=O` [Embelin] + CCNC(=O)c1noc(-c2cc(C(C)C)c(O)cc2O)c1-c1ccc(CN2CCOCC2)cc1 [Luminespib] (partner 0.01 µM), the relative viability came out at 1.08.

For the compound `CCCCCCCCCCCC1=C(O)C(=O)C=C(O)C1=O` [Embelin] + Cc1nc(Nc2ncc(C(=O)Nc3c(C)cccc3Cl)s2)cc(N2CCN(CCO)CC2)n1 [Dasatinib] (partner 0.075 µM), the relative viability came out at 0.337.

On to `CCCCCCCCCCCC1=C(O)C(=O)C=C(O)C1=O` [Embelin] + CC(=O)c1c(C)c2cnc(Nc3ccc(N4CCNCC4)cn3)nc2n(C2CCCC2)c1=O [Palbociclib] (partner 0.5 µM), for which the relative viability is 0.391.

In turn, `CCCCCCCCCCCC1=C(O)C(=O)C=C(O)C1=O` [Embelin] + COc1cccc2cc(-c3nc([C@H]4CC[C@H](C(=O)O)CC4)n4ncnc(N)c34)[nH]c12 [OSI-027] (partner 0.5 µM) gave a relative viability of 0.934.

`CCCCCCCCCCCC1=C(O)C(=O)C=C(O)C1=O` [Embelin] + Nc1nc2[nH]cc(CCc3ccc(C(=O)N[C@@H](CCC(=O)O)C(=O)O)cc3)c2c(=O)[nH]1 [Pemetrexed] (partner 0.2 µM) showed a relative viability of 0.317.

The experiment is the same for the next values; noted with them: first compound 8 µM.
`CCCCCCCCCCCC1=C(O)C(=O)C=C(O)C1=O` [Embelin] + CCNC(=O)c1noc(-c2cc(C(C)C)c(O)cc2O)c1-c1ccc(CN2CCOCC2)cc1 [Luminespib] (partner 0.01 µM) had a relative viability of 0.622.

In turn, `CCCCCCCCCCCC1=C(O)C(=O)C=C(O)C1=O` [Embelin] + Cc1nc(Nc2ncc(C(=O)Nc3c(C)cccc3Cl)s2)cc(N2CCN(CCO)CC2)n1 [Dasatinib] (partner 0.075 µM) had a relative viability of 0.275.

`CCCCCCCCCCCC1=C(O)C(=O)C=C(O)C1=O` [Embelin] + CC(=O)c1c(C)c2cnc(Nc3ccc(N4CCNCC4)cn3)nc2n(C2CCCC2)c1=O [Palbociclib] (partner 0.5 µM) registered a relative viability of 0.335.

`CCCCCCCCCCCC1=C(O)C(=O)C=C(O)C1=O` [Embelin] + COc1cccc2cc(-c3nc([C@H]4CC[C@H](C(=O)O)CC4)n4ncnc(N)c34)[nH]c12 [OSI-027] (partner 0.5 µM): the relative viability turned out to be 0.822.

Compound `CCCCCCCCCCCC1=C(O)C(=O)C=C(O)C1=O` [Embelin] + Nc1nc2[nH]cc(CCc3ccc(C(=O)N[C@@H](CCC(=O)O)C(=O)O)cc3)c2c(=O)[nH]1 [Pemetrexed] (partner 0.2 µM) had a relative viability of 0.215.

The subject of a further experiment is NCI-H1792. Described as above. Conditions: first compound 0.08 µM. In outline:
as §1
As for `CCCCCCCCCCCC1=C(O)C(=O)C=C(O)C1=O` [Embelin] + CCNC(=O)c1noc(-c2cc(C(C)C)c(O)cc2O)c1-c1ccc(CN2CCOCC2)cc1 [Luminespib] (partner 0.01 µM), the relative viability was 0.363.

`CCCCCCCCCCCC1=C(O)C(=O)C=C(O)C1=O` [Embelin] + Cc1nc(Nc2ncc(C(=O)Nc3c(C)cccc3Cl)s2)cc(N2CCN(CCO)CC2)n1 [Dasatinib] (partner 0.075 µM) yielded a relative viability of 0.771.

`CCCCCCCCCCCC1=C(O)C(=O)C=C(O)C1=O` [Embelin] + CC(=O)c1c(C)c2cnc(Nc3ccc(N4CCNCC4)cn3)nc2n(C2CCCC2)c1=O [Palbociclib] (partner 0.5 µM): the relative viability is 0.625.

`CCCCCCCCCCCC1=C(O)C(=O)C=C(O)C1=O` [Embelin] + COc1cccc2cc(-c3nc([C@H]4CC[C@H](C(=O)O)CC4)n4ncnc(N)c34)[nH]c12 [OSI-027] (partner 0.5 µM) displayed a relative viability of 0.746.

Compound `CCCCCCCCCCCC1=C(O)C(=O)C=C(O)C1=O` [Embelin] + Nc1nc2[nH]cc(CCc3ccc(C(=O)N[C@@H](CCC(=O)O)C(=O)O)cc3)c2c(=O)[nH]1 [Pemetrexed] (partner 0.2 µM) yielded a relative viability of 0.815.

The experiment is the same for the next values; noted with them: first compound 0.8 µM.
In the case of `CCCCCCCCCCCC1=C(O)C(=O)C=C(O)C1=O` [Embelin] + CCNC(=O)c1noc(-c2cc(C(C)C)c(O)cc2O)c1-c1ccc(CN2CCOCC2)cc1 [Luminespib] (partner 0.01 µM), the relative viability stood at 0.515.

The compound `CCCCCCCCCCCC1=C(O)C(=O)C=C(O)C1=O` [Embelin] + Cc1nc(Nc2ncc(C(=O)Nc3c(C)cccc3Cl)s2)cc(N2CCN(CCO)CC2)n1 [Dasatinib] (partner 0.075 µM) yielded a relative viability of 0.803.

The compound `CCCCCCCCCCCC1=C(O)C(=O)C=C(O)C1=O` [Embelin] + CC(=O)c1c(C)c2cnc(Nc3ccc(N4CCNCC4)cn3)nc2n(C2CCCC2)c1=O [Palbociclib] (partner 0.5 µM) gave a relative viability of 0.719.

On to `CCCCCCCCCCCC1=C(O)C(=O)C=C(O)C1=O` [Embelin] + COc1cccc2cc(-c3nc([C@H]4CC[C@H](C(=O)O)CC4)n4ncnc(N)c34)[nH]c12 [OSI-027] (partner 0.5 µM), for which the relative viability was 0.884.

Regarding `CCCCCCCCCCCC1=C(O)C(=O)C=C(O)C1=O` [Embelin] + Nc1nc2[nH]cc(CCc3ccc(C(=O)N[C@@H](CCC(=O)O)C(=O)O)cc3)c2c(=O)[nH]1 [Pemetrexed] (partner 0.2 µM), the relative viability is 0.817.

Staying with this experiment, now noted: first compound 2.53 µM.
For `CCCCCCCCCCCC1=C(O)C(=O)C=C(O)C1=O` [Embelin] + CCNC(=O)c1noc(-c2cc(C(C)C)c(O)cc2O)c1-c1ccc(CN2CCOCC2)cc1 [Luminespib] (partner 0.01 µM), the relative viability amounted to 0.46.

The compound `CCCCCCCCCCCC1=C(O)C(=O)C=C(O)C1=O` [Embelin] + Cc1nc(Nc2ncc(C(=O)Nc3c(C)cccc3Cl)s2)cc(N2CCN(CCO)CC2)n1 [Dasatinib] (partner 0.075 µM) had a relative viability of 0.792.
